# Laboratory results published in patent US9321751B2, “Piperine derivatives and uses thereof” (INDUSTRY-ACADEMIC COOPERATION FOUNDATION, YONSEI UNIVERSITY, priority 2012, dated 2016).
# Legend:
# [1] = tested on: 3T3-L1 cells as preadipocytes; test: Inhibition of adipocyte differentiation, Oil-Red O staining; format: cell-based, Mouse; conditions: treated every other day from day 0 of differentiation, 14 days culture, different concentrations
# Protocol: Mouse adipocyte line (3T3-L1) was used to evaluate effects of various piperine-based compounds on adipocyte differentiation and growth. 3T3-L1 cells as preadipocytes were dispensed on a 12-well plate, and cultured in a 5% CO2 incubator using DMEM medium supplemented with 1% penicillin-streptomycin, 1% non-essential amino acids, and 10% FBS. The cultured 3T3-L1 cells were made into differentiated adipocytes by being cultured for […] in a medium containing 0.5 mM […], 1 μM dexamethasone (MDI), and 1 μg/mL insulin, and then differentiated into mature adipocytes by being further cultured in a medium 1 μg/mL insulin. After that, they were further cultured for 10 days while changing the DMEM culture liquid every other day to obtain fully differentiated adipocytes.
# The culture liquid was treated with 13 new compounds with different concentrations every other day from day 0 when DMI was added to the 3T3-L1 cells for differentiation. Derivative compounds were dissolved in DMSO before the use thereof, and a negative control group added with only DMSO was included in the experiment.
# After the culturing for a total of 14 days, the culture liquids were removed when the cells were fully differentiated, and fat spheres contained in the differentiated adipocytes were stained. For this, the cells were washed 2 times with phosphate buffered saline (PBS), immobilized in 10% buffered neutral formalin for 1 hour, washed again once with PBS, stained for 1 hour by adding 1 mL of Oil-Red-O, which specifically stains fats red, to the 12-well plate, and then washed 2 times with distilled water. In order to measure the level of triglyceride contained in the differentiated 3T3-L1 cells, the stained cells were dissolved in 1 mL of iso-butanol and the OD value was measured at 600 nm.
# C57BL/6J mice [2] = test: Oral glucose tolerance test in mice fed test diets; format: in vivo; conditions: 8 weeks of diet
# Protocol: After 8 weeks of experimental diet, the oral glucose tolerance test was performed on all groups. After 6 hours of fasting, the mice were orally administered with glucose (2 g glucose/10 ml of distilled water/kg body weight). Before the oral administration of glucose, at 15, 30, 60, and 120 min after the administration of glucose, blood samples were taken from the tail cut (by removing the distal 1 cm of the tail) and blood glucose concentrations were measured using a blood glucose monitoring device.
# C57BL/6J mice [3] = test: Body weight and visceral fat weight of mice fed high-fat test diets (LJ-2498 study); format: in vivo; conditions: 0.05% in high-fat diet, 10 weeks
# Protocol: The obesity-inducing diet used in this example was high-fat diet (HFD: 40% fat calorie, 17 g lard+3% corn oil/100 g diet). LJ-2498 chemical (JL-2498) or piperine (Pin)-containing diet had the same composition as HFD, except that LJ-2498 chemical was included at 0.05%. As control drugs, metformin (Metf) as a diabetic treatment in a level of 0.1% and sibutramine as an obesity treatment in a level of 0.1% were added to a high-fat diet. A normal diet group (Chow) was fed with commercial rodent feedstuff.
# (§1) 5-week-old male C57BL/6J mice (Orient, Korea) were accustomed to the laboratory environment for 1 week while feeding solid feed. Then, they were randomly divided into normal diet group, high-fat diet control group and test group of 3 types and control drug group of 2 types. They were bred for a total of 10 weeks (n=8/group). The diet was given between 10 and 11 a.m. every day together with water. Diet intake was measured every day and body weight was measured every week. In order to avoid transient body weight increase after feed intake, body weight was measured 2 hours after removing the feed. After fasting the test animal for at least 12 hours and anesthetizing with diethyl ether, blood, liver and visceral fat (epididymal fat, perirenal fat, mesenteric fat and retroperitoneal fat) were taken and weighed after washing with 0.1 M PBS (pH 7.4). Blood taken from the abdominal aorta was centrifuged at 1000×g for 15 minutes to separate the serum.
# C57BL/6J mice [4] = test: Biochemical analysis of blood (plasma lipids, ALT, AST) of mice fed test diets; format: in vivo; conditions: 0.05% in high-fat diet, 10 weeks
# Protocol: as §1
# After 10 weeks of breeding, total cholesterol, triglyceride and glucose levels in the plasma and lipid levels in the liver tissue were measured as follows. Total cholesterol, triglyceride, free fatty acid and glucose levels in the plasma were measured twice for each using a commercially available kit (Bio Clinical System). The activity of ALT (alanine aminotransferase) and AST (aspartate aminotransferase) used as liver function indicator were measured twice for each using a commercially available kit (Bio Clinical System, Korea).
# C57BL/6J mice [5] = test: Liver weight and lipid level in liver tissues of mice fed test diets; format: in vivo; conditions: 0.05% in high-fat diet, 10 weeks
# Protocol: as §1
# Lipids were extracted from the liver tissue according to Folch et al.'s method Folch J et al., J Biol. Chem. 226: 497-509 (1957)). After adding 1 mL of distilled water to 0.25 g of liver tissue, the liver tissue was homogenized using a Polytron homogenizer (IKA-Werke GmbH & Co., Ultra-Turrax, Staufen, Germany). After adding 5 mL of chloroform:methanol solution (2:1, v/v) to the homogenate and mixing well, the mixture was centrifuged at 1000×g for 10 minutes. After adding 2 mL of chloroform:methanol solution (2:1, v/v) again to the supernatant, the same procedure was repeated to completely separate the lipid components of the liver. After adding 3 mL of chloroform:methanl:0.05% CaCl2 (3:48:47, v/v/v) solution to the remaining pellets and mixing well for 1 minute, followed by centrifugation at 1000×g for 10 minutes, the resulting pellets were completely dried with nitrogen gas. The dried lipids were dissolved in 1 mL of methanol and then analyzed.
# The same kit (Bio Clinical System) as that used for the plasma analysis was used to measure the triglyceride and cholesterol levels of the liver tissue.
# C57BL/6J mice [6] = test: Body and visceral fat-pad weights of mice fed high-fat test diets (LJ-2529 study); format: in vivo; conditions: 14 weeks; for decrease of daily food intake: supplemented high-fat diet
# Protocol: The obesity-inducing control diet used in the test was high-fat diet (HFD: 40% fat calorie, 17 g lard+3% corn oil/100 g diet). Diets supplemented with LJ-2529 compound or piperine had the same composition as HFD, except that LJ-2529 was included at 0.05%.
# 5-week-old male C57BL/6J mice (Orient, Korea) were accustomed to the laboratory environment for 1 week while feeding solid feed. […] The diet was given between 10 and 11 a.m. every day together with water. Food intake was measured every day and body weight was measured once a week. In order to avoid transient body weight increase after feed intake, body weight was measured 2 hours after removing the feed. After fasting the test animal for at least 12 hours and anesthetizing with diethyl ether, blood, liver and visceral fat (epididymal fat, perirenal fat, mesenteric fat and retroperitoneal fat) were taken and weighed after washing with 0.1M PBS (pH 7.4). Blood taken from the abdominal aorta was centrifuged at 1000×g for 15 minutes for the separation of plasma.
smiles,measurement,setting,value
"CC(=O)OC/C=C/c1ccc2c(c1)OCO2 [LJ-2196, (E)-3-(benzo[d][1,3]dioxo-5-yl)allyl acetate]",differentiation of the preadipocytes 3T3L1,[1],reduced the differentiation of the preadipocytes 3T3L1 in a concentration-dependent manner
"C(=N\c1ccccc1)/c1ccc2c(c1)OCO2 [LJ-2477, (E)-N-(benzo[d][1,3]dioxol-5-ylmethylene)aniline]",differentiation of the preadipocytes 3T3L1,[1],reduced the differentiation of the preadipocytes 3T3L1 in a concentration-dependent manner
"O=C(/C=C/C=C/c1ccc2c(c1)OCO2)N1CCCC1 [LJ-2487, (2E,4E)-5-(benzo[d][1,3]dioxol-5-yl)-1-(pyrrolidin-1-yl)penta-2,4-dien-1-one]",differentiation of the preadipocytes 3T3L1,[1],reduced the differentiation of the preadipocytes 3T3L1 in a concentration-dependent manner
"COc1ccc(OC)c(/C=C/C=C/C(=O)N2CCCCC2)c1 [LJ-2488, (2E,4E)-5-(2,5-dimethoxy-phenyl)-1-(piperidin-1-yl) penta-2,4-dien-1-one]",differentiation of the preadipocytes 3T3L1,[1],reduced the differentiation of the preadipocytes 3T3L1 in a concentration-dependent manner
"COc1cccc(/C=C/C=C/C(=O)N2CCCCC2)c1OC [LJ-2489, (2E,4E)-5-(2,3-dimethoxy-phenyl)-1-(piperidin-1-yl) penta-2,4-dien-1-one]",differentiation of the preadipocytes 3T3L1,[1],reduced the differentiation of the preadipocytes 3T3L1 in a concentration-dependent manner
same,reduction of area under the curve (ACU) for blood glucose concentrations as compared with HFD,C57BL/6J mice [2]; 2 g glucose/kg oral,17%
"COc1ccc(/C=C/C=C/C(=O)N2CCCCC2)c(OC)c1 [LJ-2490, (2E,4E)-5-(2,4-dimethoxy-phenyl)-1-(piperidin-1-yl) penta-2,4-dien-1-one]",differentiation of the preadipocytes 3T3L1,[1],reduced the differentiation of the preadipocytes 3T3L1 in a concentration-dependent manner
"COc1ccc(/C=C/C=C/C(=O)N2CCCCC2)cc1OC [LJ-2491, (2E,4E)-5-(3,4-dimethoxy-phenyl)-1-(piperidin-1-yl) penta-2,4-dien-1-one]",differentiation of the preadipocytes 3T3L1,[1],reduced the differentiation of the preadipocytes 3T3L1 in a concentration-dependent manner
"COc1cc(/C=C/C=C/C(=O)N2CCCCC2)cc(OC)c1 [LJ-2492, (2E,4E)-5-(3,5-dimethoxy-phenyl)-1-(piperidin-1-yl) penta-2,4-dien-1-one]",differentiation of the preadipocytes 3T3L1,[1],reduced the differentiation of the preadipocytes 3T3L1 in a concentration-dependent manner
"Cc1ccc(C)c(/C=C/C=C/C(=O)N2CCCCC2)c1 [LJ-2497, Trans-(2E,4E)-5-(2,5-dimethylphenyl)-1-(piperidin-1-yl) penta-2,4-dien-1-one]",differentiation of the preadipocytes 3T3L1,[1],reduced the differentiation of the preadipocytes 3T3L1 in a concentration-dependent manner
"Cc1ccc(C)c(/C=C/C=C\C(=O)N2CCCCC2)c1 [LJ-2498, Cis-(2E,4E)-5-(2,5-dimethyl-phenyl)-1-(piperidin-1-yl) penta-2,4-dien-1-one]",differentiation of the preadipocytes 3T3L1,[1],reduced the differentiation of the preadipocytes 3T3L1 in a concentration-dependent manner
same,epididymal fat weight per body weight as compared to HFD,C57BL/6J mice [3],significantly lower
same,lower accumulated body weight gain as compared to HFD,C57BL/6J mice [3],23%
same,lower total visceral fat weight compared to HFD,C57BL/6J mice [3],28%
same,mesenteric fat weight per body weight as compared to HFD,C57BL/6J mice [3],significantly lower
same,perirenal fat weight per body weight as compared to HFD,C57BL/6J mice [3],significantly lower
same,retroperitoneal fat weight per body weight as compared to HFD,C57BL/6J mice [3],significantly lower
same,visceral fat weight as compared to HFD group,C57BL/6J mice [3],significantly lower
same,decreased plasma activity of ALT as compared to HFD,C57BL/6J mice [4],27%
same,decreased plasma activity of AST as compared to HFD,C57BL/6J mice [4],15%
same,lower plasma level of free fatty acid as compared to HFD,C57BL/6J mice [4],25%
same,lower plasma level of total cholesterol as compared to HFD,C57BL/6J mice [4],20%
same,lower plasma level of triglyceride as compared to HFD,C57BL/6J mice [4],21%
same,insulin resistance improving effect versus control drugs metformin and sibutramine,C57BL/6J mice [2],more excellent than those of control drugs
same,blood glucose concentration after oral glucose as compared with HFD,"C57BL/6J mice [2]; 2 g glucose/kg, 15, 30, 60, 120 min",further reduced over all the time zones
same,reduction of fasting blood glucose as compared with HFD,C57BL/6J mice [2]; 6 hours fasting,20%
same,decrease of liver weight compared to HFD,C57BL/6J mice [5],23%
same,decreased level of cholesterol in liver tissue as compared to HFD,C57BL/6J mice [5],41%
same,decreased level of triglyceride in liver tissue as compared to HFD,C57BL/6J mice [5],29%
same,liver tissue appearance as compared to HFD,C57BL/6J mice [5]; images,darker and smaller liver tissue
O=c1[nH]c2ccc(/N=C/c3cc4c(cc3Br)OCO4)cc2[nH]1 [LJ-2527],differentiation of the preadipocytes 3T3L1,[1],reduced the differentiation of the preadipocytes 3T3L1 in a concentration-dependent manner
O=c1[nH]c2ccc(/N=C/c3c(Br)ccc4c3OCO4)cc2[nH]1 [LJ-2529],differentiation of the preadipocytes 3T3L1,[1],reduced the differentiation of the preadipocytes 3T3L1 in a concentration-dependent manner
same,decrease of FER (feed efficiency ratio) compared with HFD,C57BL/6J mice [6]; 0.05% in high-fat diet,60%
same,decrease of body weight gain as compared to HFD,C57BL/6J mice [6]; 0.05% in high-fat diet,60%
same,epididymal fat-pad weight as compared to HFD,C57BL/6J mice [6]; 0.05% in high-fat diet,significantly reduced
same,mesenteric fat-pad weight as compared to HFD,C57BL/6J mice [6]; 0.05% in high-fat diet,significantly reduced
same,perirenal fat-pad weight as compared to HFD,C57BL/6J mice [6]; 0.05% in high-fat diet,significantly reduced
same,retroperitoneal fat-pad weight as compared to HFD,C57BL/6J mice [6]; 0.05% in high-fat diet,significantly reduced
same,reduction of total visceral fat weight versus HFD,"C57BL/6J mice [6]; 0.05% in high-fat diet, P<0.001",15%
same,decrease of daily food intake,C57BL/6J mice [6],24%
S=c1[nH]c2ccc(/N=C/c3c(Br)ccc4c3OCO4)cc2[nH]1 [SKKU-S-02],differentiation of the preadipocytes 3T3L1,[1],reduced the differentiation of the preadipocytes 3T3L1 in a concentration-dependent manner
"O=C(/C=C/C=C/c1ccc2c(c1)OCO2)N1CCCCC1 [piperine, Piperine]",body weight gain change (signed) versus HFD,C57BL/6J mice [6]; piperine-supplemented high-fat diet,−48%
same,decrease of daily food intake,C57BL/6J mice [6],27%
